Measured values from US20050153870A1, “Medicinal composition for diagnosis, prevention, or therapy of multiple risk factor syndrome” (priority 2002, published 2005).

Test system: Db/db mouse, ob/ob mouse
Assay: Improvement of polydipsia and polyurea
Type: in vivo
Settings: in feed, hereditary diabetic obese mouse

With `CC(C=CC1(C)C(C)CCC(=O)C1C)=CCc1c(O)c(C=O)c(C)c(Cl)c1OCC(=O)O` (centres unmarked) [AS-6, 4-O-carboxymethylascochlorin] the “amount of drinking water” value was “obese mouse, the amount of drinking water decreases in a dose-dependent manner,” and the “amount of sugar excreted in the urine” value was “excreted in the urine significantly decreases”.
